According to patent US20180057505A1, “BICYCLIC HETEROARYL COMPOUNDS USEFUL AS INHIBITORS OF THE PAR-2 SIGNALING PATHWAY” (VERTEX PHARMACEUTICALS INCORPORATED, priority 2015, published 2018):

Tests used:
Format in all cases: cell-based
[1] = system: Thrombin-stimulated Ca2+ response in HT-29 cells; test: Ca FLIPR TETRA assay, ANTAGONIST mode, activator 1 U/mL Thrombin; conditions: HT-29 cells, activator 1 U/mL Thrombin
Procedure, shortened: (§1)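 Ca2+ flux by FLIPR Tetra in HT-29 cells after 30 min r.t. compound preincubation, followed by stimulation with SLIGKV 8 μM, thrombin 1 U/mL, trypsin 3.1 U/mL or UTP 0.6 μM (final). Cells were dye-loaded with calcium 5 beforehand; compound-only responses were also read.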

[2] = system: UTP-stimulated Ca2+ response in HT-29 cells; test: Ca FLIPR TETRA assay, ANTAGONIST mode, activator 0.6 μM UTP; conditions: HT-29 cells, activator 0.6 μM UTP
Procedure, shortened: as §1

[3] = target: T1, PAR2 (HT-29 cells) (Homo sapiens, UniProt P55085); test: Ca FLIPR TETRA assay, ANTAGONIST mode, activator 8 μM SLIGKV; conditions: for IC50: HT-29 cells, activator 8 μM SLIGKV
T1 construct: host or cells: HT-29
T1 sequence (P55085 26-397): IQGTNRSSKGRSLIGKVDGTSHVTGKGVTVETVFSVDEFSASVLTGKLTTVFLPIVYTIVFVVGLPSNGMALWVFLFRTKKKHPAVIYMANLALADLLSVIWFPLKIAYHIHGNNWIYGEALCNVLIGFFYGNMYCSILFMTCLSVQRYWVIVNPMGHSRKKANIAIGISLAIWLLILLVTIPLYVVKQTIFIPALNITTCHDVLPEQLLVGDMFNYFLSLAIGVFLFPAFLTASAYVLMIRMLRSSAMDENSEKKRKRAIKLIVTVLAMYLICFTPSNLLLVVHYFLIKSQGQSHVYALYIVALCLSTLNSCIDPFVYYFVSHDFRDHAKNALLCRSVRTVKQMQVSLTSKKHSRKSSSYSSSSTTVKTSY
Procedure, shortened: as §1

[4] = target: T1, PAR2 (HT-29 cells); test: Ca FLIPR TETRA assay, ANTAGONIST mode, activator 3.1 U/mL trypsin; conditions: HT-29 cells, activator 3.1 U/mL trypsin
Procedure, shortened: as §1

[5] = Method A: maximal concentration of antagonist 0.1, 1 or 2 μM
[6] = maximal antagonist concentration per Method (A: 0.1, 1 or 2 μM; B: 50 μM)

| IC50 ([1]; Homo sapiens) [nM] | IC50 ([2]; Homo sapiens) [nM] | IC50 [3, 5] [nM] | IC50 [4, 5] [nM] | IC50 [3, 6] [nM] | IC50 [4, 6] [nM] | IC50 [1] [nM] | IC50 [2] [nM] | SLIGKV, % @ 50 ([3]; @ 50 (μM)) [% @ 50] | SMILES |
| --- | --- | --- | --- | --- | --- | --- | --- | --- | --- |
| > 2000 | > 2000 | 37 | 43 |  |  |  |  |  | Cc1nccnc1N1CCN(C(=O)c2cc3nc(-c4ccc(Cl)c(F)c4)cc(C(C)(C)C)c3o2)C(C)(C)C1=O [Example I-359] |
| > 2000 | > 2000 | 32 | 28 |  |  |  |  |  | CC(C)(C)c1cc(-c2ccc(Cl)c(F)c2)nc2cc(C(=O)N3CCN(S(=O)(=O)NC4CC4)CC3(C)C)oc12 [Example I-542] |
| > 1010 | 860 | 0.4 | 0.6 |  |  |  |  |  | Cc1cc(N2CCN(C(=O)c3cc4nc(-c5ccc(Cl)cc5)cc(C(C)(C)C)c4o3)C(C)(C)C2)ncc1C(=O)O [Example I-399] |
| > 2000 | > 2000 | 13.1 | 15 |  |  |  |  |  | CC(C)(C)c1cc(-c2ccc(Cl)c(F)c2)nc2cc(C(=O)N3CCN(c4ccncn4)CC3(C)C)oc12 [Example I-412] |
| > 2000 | > 2000 | 0.3 | 0.4 |  |  |  |  |  | Cc1ccc(N2CCN(C(=O)c3cc4nc(-c5ccc(Cl)cc5)cc(C(C)(C)C)c4o3)C(C)(C)C2)nc1-c1nnn[nH]1 [Example I-537] |
| > 2000 | > 2000 | 270 | 250 |  |  |  |  |  | Cc1cc(C(=O)O)c(N2CCN(C(=O)c3cc4nc(-c5ccc(Cl)c(F)c5)cc(C(C)(C)C)c4o3)C(C)(C)C2)nn1 [Example I-528] |
| 1500 | 1030 | 0.2 | 0.3 |  |  |  |  |  | CC(C)(C)c1cc(-c2ccc(Cl)cc2)nc2cc(C(=O)N3CCN(c4cccc(C(=O)O)n4)CC3(C)C)oc12 [Example I-479] |
| > 2000 | > 2000 | 0.6 | 0.9 |  |  |  |  |  | CC(C)(C)c1cc(-c2ccc(Cl)c(F)c2)nc2cc(C(=O)N3CCN(C(=O)[C@@H]4CCC[C@@H]4C(=O)O)CC3(C)C)oc12 [Example I-545] |
| > 2000 | > 2000 | 0.4 | 0.7 |  |  |  |  |  | CC(C)(C)c1cc(-c2ccc(Cl)cc2)nc2cc(C(=O)N3CCN(C(=O)[C@H]4CC[C@@](C)(C(=O)O)CC4)CC3(C)C)oc12 [Example I-423] |
| > 2000 | > 2000 | 8.9 | 6.6 |  |  |  |  |  | CC(C)(C)c1cc(-c2ccc(Cl)cc2)nc2cc(C(=O)N3CCN(c4cnc(C(=O)O)cn4)CC3(C)C)oc12 [Example I-452] |
|  |  | 0.2 | 0.3 |  |  | > 2000 | > 2000 |  | CC1(C)CCC(c2cc(C(C)(C)C)c3oc(C(=O)N4CCN(c5nc(C(=O)O)ccc5F)CC4(C)C)cc3n2)CC1 [Example I-503] |
| > 2000 | > 2000 | 1.8 | 2.7 |  |  |  |  |  | CC(C)(C)c1cc(-c2ccc(Cl)c(F)c2)nc2cc(C(=O)N3CCN(c4nc(-c5ccccc5)ccc4C(=O)O)CC3(C)C)oc12 [Example I-516] |

The next lines start with the compound.

| SMILES | IC50 ([1]; Homo sapiens) [nM] | IC50 ([2]; Homo sapiens) [nM] | IC50 [3, 5] [nM] | IC50 [4, 5] [nM] | IC50 [3, 6] [nM] | IC50 [4, 6] [nM] | IC50 [1] [nM] | IC50 [2] [nM] | SLIGKV, % @ 50 ([3]; @ 50 (μM)) [% @ 50] |
| --- | --- | --- | --- | --- | --- | --- | --- | --- | --- |
| Cc1cnc(N2CCN(C(=O)c3cc4nc(-c5ccc(Cl)cc5)cc(C(C)(C)C)c4o3)C(C)(C)C2)cn1 [Example I-264] | > 2000 | > 2000 |  |  | 15 | 18 |  |  |  |
| CCC(CC)c1cc(-c2ccc(F)cc2)nc2cc(C(=O)N3CCNC(=O)C3(C)C)oc12 [Example I-233] | > 2000 | > 2000 |  |  | 6.2 | 8.1 |  |  |  |
| C=C(C)c1cc(-c2ccc(F)cc2)nc2cc(C(=O)N3CCN(C(=O)[C@H]4C[C@](O)(C(F)(F)F)C4)CC3(C)C)oc12 [Example I-143] | > 1000 | > 1000 |  |  | 2.1 | 2.2 |  |  |  |
| CC(C)c1cc(-c2ccc(F)cc2)nc2cc(C(=O)N3CCN(C(=O)C4CCCCO4)CC3(C)C)oc12 (stereo not drawn) [Example I-64] | 30000 | 21000 |  |  | 4.5 | 6 |  |  |  |
| CC1(C)C(=O)NCCN1C(=O)c1cc2nc(-c3ccc(F)cc3)cc(C3CCCC3)c2o1 [Example I-203] | > 1000 | > 1000 |  |  | 5 | 10 |  |  |  |
| CC1(c2cc(-c3ccc(F)cc3)nc3cc(C(=O)N4CCN(C(=O)C5(C#N)CC5)CC4(C)C)oc23)CC1 [Example I-51] | 24000 | > 50000 |  |  | 5.8 | 5.3 |  |  |  |
| CC(C)(C)c1cc(-c2ccc(Cl)cc2)nc2cc(C(=O)N3CCN(c4cccc(-c5nnn[nH]5)n4)CC3(C)C)oc12 [Example I-350] | > 2000 | > 2000 | 0.08 | 0.3 |  |  |  |  |  |
| CN1CCN(C(=O)c2cc3nc(-c4ccc(F)c(Cl)c4)cc(C(C)(C)C)c3o2)C(C)(C)C1=O [Example I-243] | > 2000 | > 2000 |  |  | 4 | 7.4 |  |  |  |
| Cc1cc(-c2cc(C(C)(C)C)c3oc(C(=O)N4CCN(C(=O)[C@H]5C[C@@](C)(O)C5)CC4(C)C)cc3n2)ccc1F [Example I-163] | > 1000 | > 1000 |  |  | 2.9 | 3.6 |  |  |  |
| C[C@H]1CN(C(=O)c2cc3nc(-c4ccc(F)cc4)cc(C4(C)CC4)c3o2)CCN1C(=O)C1(O)CC1 [Example I-117] | 12000 | 7700 |  |  | 1100 | 2300 |  |  |  |
| CC(C)(C)c1cc(-c2ccc(Cl)cc2)nc2cc(C(=O)N3CCN(c4ncc(-c5nnn[nH]5)cn4)CC3(C)C)oc12 [Example I-341] | > 2000 | 1700 | 1.6 | 4.4 |  |  |  |  |  |
| CC(C)(C)c1cc(-c2ccc(F)cc2)nc2cc(C(=O)N3CCN(C(=O)[C@H]4C[C@@](C)(O)C4)CC3(C)C)oc12 [Example I-151] | > 1000 | > 1000 |  |  | 1.5 | 2.7 |  |  |  |
| Cc1nnc(C(=O)N2CCN(C(=O)c3cc4nc(-c5ccc(F)c(C)c5)cc(C(C)(C)C)c4o3)C(C)(C)C2)[nH]1 [Example I-166] | > 1000 | > 1000 |  |  | 1.3 | 3.3 |  |  |  |
| CC1(C)CCC(c2cc(C(C)(C)C)c3oc(C(=O)N4CCN(C(=O)CC5(C(=O)O)CCC5)CC4(C)C)cc3n2)CC1 [Example I-338] | > 2000 | > 2000 | 0.3 | 0.5 |  |  |  |  |  |
| CC(C)(C)c1cc(-c2ccc(Cl)c(F)c2)nc2cc(C(=O)N3CCN(c4cccc(-c5nnn[nH]5)n4)CC3(C)C)oc12 [Example I-344] | > 2000 | > 2000 | 0.1 | 0.2 |  |  |  |  |  |
| C[C@H]1CN(C(=O)c2cc3nc(-c4ccc(F)cc4)cc(C4(C)CC4)c3o2)CCN1C(=O)C1(C#N)CC1 [Example I-119] | 1400 | 1600 |  |  | 620 | 560 |  |  |  |
| CC(C)(C)c1cc(-c2ccc(Cl)c(F)c2)nc2cc(C(=O)N3CCN(C(=O)c4ncn[nH]4)CC3(C)C)oc12 [Example I-181] | > 1000 | > 1000 |  |  | 0.9 | 1.6 |  |  |  |
| CC1(c2cc(-c3ccc(F)cc3)nc3cc(C(=O)N4CCN(C(=O)C5C(C)(C)C5(C)C)CC4(C)C)oc23)CC1 [Example I-50] | > 50000 | > 50000 |  |  | 4.9 | 5.1 |  |  |  |
| CC(C)(C)c1cc(C2CCC(F)(F)CC2)nc2cc(C(=O)N3CCN(C(=O)c4cnccn4)CC3(C)C)oc12 [Example I-230] | > 2000 | > 2000 |  |  | 81 | 150 |  |  |  |
| CC(C)(C)c1cc(-c2ccc(F)cc2)nc2cc(C(=O)N3CCN(C(=O)c4n[nH]c(=O)[nH]4)CC3(C)C)oc12 [Example I-187] | > 1000 | > 1000 |  |  | 10 | 20 |  |  |  |
| CC1(c2cc(-c3ccc(F)cc3)nc3cc(C(=O)N4CCN(C(=O)[C@H](O)Cc5ccccc5)CC4(C)C)oc23)CC1 [Example I-41] | > 50000 | > 50000 |  |  | 6.5 | 8.5 |  |  |  |
| CC(C)(C)c1cc(-c2ccc(F)cc2)nc2cc(C(=O)N3CCN(c4cn[nH]c4)C(=O)C3(C)C)oc12 [Example I-182] | > 1000 | > 1000 |  |  | 1.1 | 5.8 |  |  |  |
| Cc1cnoc1C(=O)N1CCN(C(=O)c2cc3nc(-c4ccc(F)cc4)cc(C(C)C)c3o2)C(C)(C)C1 [Example I-140] | > 1000 | > 1000 |  |  | 4.8 | 3.5 |  |  |  |
| CC(C)c1cc(-c2ccc(F)cc2)nc2cc(C(=O)N3CCN(C(=O)OC(C)(C)C)CC3)oc12 [Example I-77] | > 50000 | > 50000 |  |  |  | 23000 |  |  | 64 |
